Assay results from PubChem BioAssay (NCI).
“And” between values parts separate entries of the source, which are not always exact repeats. Equal values may be shown once.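 Results reflect a 48-hour exposure of cells in 96-well plates to compound at five concentrations. GI50 is the concentration that inhibits growth by half. At the TGI there is no net growth.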 *1 amine or outer side, *2 acyl side, *3 side chain or, on linkers, in order; H or OH if unused. Where a SMILES comes first, the peptide text is derived from it. Bridges are numbered along the chain shown (N, C = ends). Roman numbers before positions name the chains, in order. [ ]: non-standard residue; d: D form. The star is where a group is joined. Actinocin(9to1) = Cc1c2oc3c(C)ccc(C(=O)[*:1])c3nc-2c(C(=O)[*:2])c(N)c1=O; NMeV = CN[CH](C(=O)O)C(C)C; Cbz = O=C(OCc1ccccc1)*; Boc = CC(C)(C)OC(=O)*; OBn = c1ccc(CO*)cc1; Sar = CNCC(=O)O

Legend:
Assay in all cases: NCI tumour cell line growth inhibition, 48 h
[1] = tested on: A549 NSCLC
[2] = tested on: OVCAR-8 ovarian
[3] = tested on: SK-MEL-5 melanoma
[4] = tested on: NCI-H23 lung
[5] = tested on: LOX IMVI melanoma
[6] = tested on: HOP-92 NSCLC
[7] = tested on: CCRF-CEM leukemia
[8] = tested on: HCT-116 colon
[9] = tested on: SK-OV-3 ovarian
[10] = tested on: CAKI-1 renal

## O=c1[nH]nc(-c2ccccc2)n1/N=C/c1c(O)ccc2ccccc12
[1]
  TGI: > 100 µM
[2]
  TGI: > 100 µM
[3]
  TGI: > 100 µM
[4]
  TGI: > 100 µM
[5]
  TGI: > 100 µM
[6]
  TGI: > 100 µM
[7]
  TGI: > 100 µM
[8]
  TGI: > 100 µM
[9]
  TGI: 68.4 µM

## c1ccc2c(c1)nc(NC1CCCC1)c1[nH]c(C3CCCC3)nc12
[1]
  TGI: 58.8 µM
[2]
  TGI: 24.3 µM
[3]
  TGI: 17.1 µM
[4]
  TGI: 32.7 µM
[5]
  TGI: 30.6 µM
[6]
  TGI: 37.2 µM
[7]
  TGI: 64.3 µM
[8]
  TGI: 17.6 µM
[9]
  TGI: > 62.5 µM

## CCc1ccc2[nH]c(O)c(-c3[nH]c4ccccc4c3N=O)c2c1
[1]
  TGI: 37 µM
[2]
  TGI: 32.2 µM
[3]
  TGI: 13.6 µM
[10]
  TGI: 19.8 µM
[4]
  TGI: 19 µM
[5]
  TGI: 26.7 µM
[7]
  TGI: > 100 µM
[8]
  TGI: 10 µM
[9]
  TGI: 12.1 µM

## O=C1Nc2cc([N+](=O)[O-])ccc2NC1/C(=N\Nc1ccccc1)C(O)c1cccc([N+](=O)[O-])c1 (stereo unspecified)
[1]
  TGI: > 100 µM
[2]
  TGI: > 100 µM
[3]
  TGI: 45.1 µM
[4]
  TGI: > 100 µM
[5]
  TGI: > 100 µM
[6]
  TGI: > 100 µM
[7]
  TGI: > 100 µM
[8]
  TGI: > 100 µM
[9]
  TGI: > 100 µM

## CSc1c(C#N)c(=O)[nH]c2n[nH]c(C)c12
[1]
  TGI: > 100 µM
[2]
  TGI: > 100 µM
[3]
  TGI: > 100 µM
[10]
  TGI: > 100 µM
[4]
  TGI: > 100 µM
[5]
  TGI: > 100 µM
[7]
  TGI: > 100 µM
[8]
  TGI: > 100 µM
[9]
  TGI: > 100 µM

## O=C1/C(=C/c2ccccc2[N+](=O)[O-])N=C(c2ccccc2)N1C1Nc2cc3c(cc2S1)NC(N1C(=O)/C(=C/c2ccccc2[N+](=O)[O-])N=C1c1ccccc1)S3 (stereo unspecified)
[1]
  TGI: > 100 µM
[2]
  TGI: > 100 µM
[3]
  TGI: > 100 µM
[10]
  TGI: > 100 µM
[4]
  TGI: > 100 µM
[5]
  TGI: > 100 µM
[6]
  TGI: > 100 µM
[8]
  TGI: > 100 µM

## c1ccc2c(c1)CCc1cc3cc4c(nc3nc1-2)-c1ccccc1CC4
[1]
  TGI: > 100 µM
[2]
  TGI: > 100 µM
[4]
  TGI: > 100 µM
[5]
  TGI: > 100 µM
[7]
  TGI: > 100 µM
[8]
  TGI: > 100 µM
[9]
  TGI: > 100 µM

## NC(=O)C#CC(N)=O
[1]
  GI50: 49.4 µM
  TGI: 173 µM and 189 µM and > 100 µM
[2]
  GI50: 8.34 µM and 19.2 µM
  TGI: 23.4 µM and 47.5 µM
[3]
  GI50: 15 µM and 54.6 µM
  TGI: 28.2 µM and > 100 µM
[10]
  GI50: 2.81 µM and 12.5 µM and 18.2 µM
  TGI: 10.3 µM and 24.2 µM and 33.8 µM
[4]
  GI50: 46.4 µM
  TGI: 238 µM and 207 µM and > 100 µM
[5]
  TGI: 80.5 µM and 30.4 µM
[6]
  TGI: 5.51 µM and 35.7 µM
[8]
  GI50: 15.1 µM and 37.5 µM
  TGI: 29.5 µM and > 100 µM
[9]
  TGI: 231 µM and 214 µM and > 100 µM

## CCOC(=O)CNC(=O)C(C)NC(=O)C(NC(=O)CC(c1ncc[nH]1)c1ncc[nH]1)C(C)CC (stereo unspecified)
[1]
  TGI: > 100 µM
[2]
  TGI: > 100 µM
[10]
  TGI: > 100 µM
[4]
  TGI: > 100 µM
[5]
  TGI: > 100 µM
[6]
  TGI: > 100 µM
[7]
  TGI: > 100 µM
[8]
  TGI: > 100 µM
[9]
  TGI: > 100 µM

## C1CCC(OC2CSC2)OC1 (stereo unspecified)
[1]
  TGI: > 100 µM
[2]
  TGI: > 100 µM
[3]
  TGI: > 100 µM
[4]
  TGI: > 100 µM
[5]
  TGI: > 100 µM
[6]
  TGI: > 100 µM
[7]
  TGI: > 100 µM
[8]
  TGI: > 100 µM
[9]
  TGI: > 100 µM

## N#Cc1c(N2CCCC2)ncn(Cc2ccccc2)c1=O
[1]
  TGI: > 100 µM
[2]
  TGI: > 100 µM
[3]
  TGI: > 100 µM
[5]
  TGI: > 100 µM
[6]
  TGI: > 100 µM
[7]
  TGI: > 100 µM
[8]
  TGI: > 100 µM
[9]
  TGI: > 100 µM

## COC(=O)C(Cc1ccc(O)cc1)NC(=O)C(CC(=O)OCc1ccccc1)NC(=O)OCc1ccccc1 (stereo unspecified) (Cbz-Asp(OBn)-Tyr-OMe; configuration not given here)
[1]
  TGI: 37 µM
[2]
  TGI: 35.6 µM
[3]
  TGI: 34.1 µM
[4]
  TGI: 66.1 µM
[6]
  TGI: > 100 µM
[7]
  TGI: > 100 µM
[8]
  TGI: 35.1 µM

## CC(NC(=O)C(NC(=O)OC(C)(C)C)C(C)C)C(=O)N1CCCC1C(=O)NCC(=O)NC(C(=O)NCC(=O)OCc1ccccc1)C(C)C (stereo unspecified) (Boc-VAPGVG-OBn; configuration not given here)
[2]
  TGI: > 100 µM
[10]
  TGI: > 100 µM
[4]
  TGI: > 100 µM
[5]
  TGI: > 100 µM
[6]
  TGI: > 100 µM
[7]
  TGI: > 100 µM
[8]
  TGI: > 100 µM
[9]
  TGI: > 100 µM

## COc1ccc(N=N/C(=N/NC(=O)c2ccccc2)c2ccc(N(CCC#N)CCC#N)cc2C)cc1
[1]
  TGI: > 100 µM
[2]
  TGI: > 100 µM
[3]
  TGI: > 100 µM
[10]
  TGI: > 100 µM
[4]
  TGI: > 100 µM
[7]
  TGI: > 100 µM
[8]
  TGI: > 100 µM
[9]
  TGI: > 100 µM

## CCOc1nc(-c2ccccc2)cc(-c2ccc(N3CCOCC3)cc2)c1C#N
[1]
  TGI: > 100 µM
[2]
  TGI: > 100 µM
[3]
  TGI: > 100 µM
[10]
  TGI: > 100 µM
[4]
  TGI: > 100 µM
[5]
  TGI: > 100 µM
[6]
  TGI: > 100 µM
[7]
  TGI: > 100 µM
[8]
  TGI: > 100 µM

## CC(CO)C1C[C@H](O)[C@@]2(C)CC(=O)C=C(CO)[C@@H]2C1 (stereo partly specified)
[1]
  TGI: > 100 µM
[2]
  TGI: > 100 µM
[3]
  TGI: > 100 µM
[10]
  TGI: > 100 µM
[4]
  TGI: > 100 µM
[5]
  TGI: > 100 µM
[6]
  TGI: > 100 µM
[8]
  TGI: > 100 µM
[9]
  TGI: > 100 µM

## O=C1NC2(CCCCC2)C2CCCCCC12 (stereo unspecified)
[1]
  TGI: > 100 µM
[4]
  TGI: > 100 µM
[5]
  TGI: > 100 µM
[8]
  TGI: > 100 µM
[9]
  TGI: > 100 µM

## COC(=O)c1cc(C#N)[nH]c1-c1ccc(C)s1
[1]
  TGI: > 100 µM
[2]
  TGI: > 100 µM
[10]
  TGI: > 100 µM
[4]
  TGI: > 100 µM
[6]
  TGI: 82.1 µM
[7]
  TGI: > 100 µM
[8]
  TGI: > 100 µM
[9]
  TGI: > 100 µM

## CC(=O)OC(OC(C)=O)n1cc(C=O)c2ccccc21
[1]
  TGI: > 100 µM
[2]
  TGI: > 100 µM
[3]
  TGI: > 100 µM
[10]
  TGI: > 100 µM
[4]
  TGI: > 100 µM
[5]
  TGI: > 100 µM
[7]
  TGI: > 100 µM
[8]
  TGI: > 100 µM
[9]
  TGI: > 100 µM

## COc1ccc(-c2c(N)n(-c3cccc(C(=O)O)c3)c(=O)c3cc([N+](=O)[O-])ccc23)cc1
[1]
  TGI: > 100 µM
[2]
  TGI: > 100 µM
[3]
  TGI: > 100 µM
[10]
  TGI: > 100 µM
[4]
  TGI: > 100 µM
[5]
  TGI: > 100 µM
[7]
  TGI: > 100 µM
[8]
  TGI: > 100 µM
[9]
  TGI: > 100 µM

## COc1ccc2c(c1)n([O-])c(C#N)c(N1CCN(c3ccc([N+](=O)[O-])cc3)CC1)[n+]2=O
[1]
  TGI: > 100 µM
[2]
  TGI: > 100 µM
[3]
  TGI: 19.7 µM
[10]
  TGI: > 100 µM
[4]
  TGI: > 100 µM
[5]
  TGI: > 28.8 µM
[7]
  TGI: > 100 µM
[8]
  TGI: > 100 µM
[9]
  TGI: > 59.5 µM

## Cc1c2oc3c(C)ccc(C(=O)NC4C(=O)NC(C(C)O)C(=O)N5CCCC5C(=O)N(C)CC(=O)N(C)C(C(C)C)C(=O)OC4C)c3nc-2c(C(=O)NC2C(=O)NC(C(C)O)C(=O)N3CCCC3C(=O)N(C)CC(=O)N(C)C(C(C)C)C(=O)OC2C)c(N)c1=O (stereo unspecified) (I: TTP[Sar][NMeV] / II: TTP[Sar][NMeV]; ester I:1-I:C, II:1-II:C; linker I:N-II:N via Actinocin(9to1); configuration not given here)
[1]
  TGI: 32.1 µM
[2]
  TGI: > 82.4 µM
[3]
  TGI: 1.74 µM
[10]
  TGI: > 100 µM
[4]
  TGI: 4.8 µM
[5]
  TGI: 0.984 µM
[7]
  TGI: 5 µM
[8]
  TGI: > 100 µM
[9]
  TGI: > 100 µM
